According to paper PMC9658017, “Hydroxygenkwanin Improves the Efficacy of Cytotoxic Drugs in ABCG2-Overexpressing Multidrug-Resistant Cancer Cells” (International Journal of Molecular Sciences, 2022):

Target: T1, ABCG2 (Homo sapiens, UniProt Q9UNQ0)
T1 sequence (Q9UNQ0 1-655): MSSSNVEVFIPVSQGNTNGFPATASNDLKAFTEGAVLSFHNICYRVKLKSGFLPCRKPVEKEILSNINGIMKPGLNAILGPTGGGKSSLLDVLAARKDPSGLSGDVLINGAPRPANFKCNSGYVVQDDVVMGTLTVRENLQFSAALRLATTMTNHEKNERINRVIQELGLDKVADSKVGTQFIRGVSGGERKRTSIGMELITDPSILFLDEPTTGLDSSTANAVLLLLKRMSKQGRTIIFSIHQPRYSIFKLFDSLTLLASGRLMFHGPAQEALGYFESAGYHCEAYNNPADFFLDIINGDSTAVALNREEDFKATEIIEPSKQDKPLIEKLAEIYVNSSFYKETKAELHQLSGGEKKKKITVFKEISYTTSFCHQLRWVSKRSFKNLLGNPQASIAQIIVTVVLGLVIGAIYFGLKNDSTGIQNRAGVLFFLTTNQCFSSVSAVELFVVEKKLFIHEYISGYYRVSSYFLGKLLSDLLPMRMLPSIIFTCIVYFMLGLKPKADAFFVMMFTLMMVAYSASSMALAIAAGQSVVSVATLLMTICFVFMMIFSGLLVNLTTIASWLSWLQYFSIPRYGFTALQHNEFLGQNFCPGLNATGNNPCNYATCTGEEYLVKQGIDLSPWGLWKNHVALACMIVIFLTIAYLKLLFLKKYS
Assay: biochemical

- EC50: ~0.019 µM
Structure (SMILES): COc1cc(O)c2c(=O)cc(-c3ccc(O)c(O)c3)oc2c1 [HGK, Hydroxygenkwanin]
